The text below walks through data of article PMC11304990, “Identification of mitochondrial ATP synthase as the cellular target of Ru-polypyridyl-β-carboline complexes by affinity-based protein profiling” (National Science Review, 2024).

Data set [1] has as its target ATPase (mitochondrial ATP synthase). Kind of data set: Inhibition of the enzymatic activity of ATPase in vitro. In kind it is biochemical. Conditions: read-out: Inhibition constant (Ki). As to the method:
(§1) Figure 1. Validation of ATP5F1 as the molecular target of Ru5. (A) Proteins pulled down by streptavidin from A549 cells treated with Ru5a followed by PAL. The cells were treated with Ru5a (50 μM) for 12 h and irradiated with UV light for 20 min. (B) The top five peptides enriched by Ru5a-mediated PAL were identified with the assistance of SILAC-based chemoproteomic studies. H1F0: H1 histone family member 0; HIST4H4: histone cluster 4 H4; HIST3H2BB: histone cluster 3 H2B family member b; ATP5F1E: ATP synthase F1 subunit epsilon; HIST1H2AJ: histone cluster 1 H2A family member J. (C) Pull-down western blotting analysis of ATPase in A549 cells treated with Ru5a. (D) Cellular Ru content in cells treated with Ru5/Ru5a (20 μM, 12 h) measured by ICP-MS. (E) Impact of Ru5/Ru5a (10 μM) on the thermal stability of ATP5F1 measured by CETSA. (F) Impact on the anticancer activities of Ru5/Ru5a against wild type and ATPase knocking down (by siRNA) A549 cells. The relative cellular viability was calculated using the cells without drug treatment in each group as the control group. (G) Inhibition of Ru5/Ru5a on the enzymatic activity of ATPase. (-)-blebbistatin was used as the positive control. (H) Molecular docking of Ru5 with ATPase (PDB: 3ZIA). The red dashes indicate the hydrogen bonds formed between Ru5 and the amino acid residues (SER38 and GLN39). The yellow dashes indicate the hydrophobic interaction between Ru5 and the amino acid residues (ASN15 and GLN19). Data are presented as means ± SD from three independent experiments. TEXT PRINTED IN THE PICTURE: (B) Ru5a: Log2 (fold change) (Ru5a/DMSO): 1.43 (Protein name: H1F0); Log2 (fold change) (Ru5a/DMSO): 1.23 (Protein name: HIST4H4); Log2 (fold change) (Ru5a/DMSO): 1.22 (Protein name: HIST3H2BB); Log2 (fold change) (Ru5a/DMSO): 1.21 (Protein name: ATP5F1E); Log2 (fold change) (Ru5a/DMSO): 1.12 (Protein name: HIST1H2AJ) DOUBTS OF THE COPYIST ABOUT THIS PICTURE: Panel B: the table rows are proteins enriched by Ru5a, not separate substances. […]

In data set [2] the test system is lung adenocarcinoma (A549). Kind of data set: MTT antiproliferative assay, A549. It counts as cell-based, human. Particulars: for IC50: 72 h; for SI (selectivity index): SI = (IC50 for HLF)/(IC50 for A549). From the text:
(§2) Ru3–Ru9 also show a certain selectivity for cancer cells over normal cells, and Ru2, Ru3, Ru5 and Ru9 show higher selectivity index (SI) values than the other complexes.
(§3) PA-BPP was then used to confirm the molecular targets of Ru5 by modifying it with a ‘minimalist’ biorthogonal handle-containing photo-cross-linker. Through our structure–activity relationship analysis and comparison with other ruthenium complexes utilizing phen as the auxiliary ligands with similar coordination structures (using cisplatin as a control), we propose that the β-carboline ligands play an important role in antiproliferative activity. To maintain the binding characteristics of the β-carboline moiety with the targeted biomolecules, we linked the photo-cross-linker to one of the auxiliary ligands of Ru5.

In data set [3] the test system is cisplatin-resistant A549R. Briefly: MTT antiproliferative assay, A549R. It counts as cell-based, human. Particulars: 72 h.
Description: as §2, §3

Data set [4] relates to human lung fibroblast-like (HLF) cells. Kind of data set: MTT antiproliferative assay, HLF. It counts as cell-based. Particulars: 72 h.
Description: as §2, §3
On the technique in general: Tetrazolium assays rely on reduction of a dye to a coloured formazan, in cell work by metabolically active cells.

In a further data set the test system is prostate cancer (PC3). Kind of data set: MTT antiproliferative assay, PC3. It counts as cell-based, human. Particulars: 72 h.
Description: as §2, §3

In the next data set the test system is A549 xenograft. Briefly: A549 xenograft nude mice model. It counts as in vivo. Particulars: 5 mg kg−1, intratumoral injection every 7 days, 14 days, compared with the control groups. As to the method: Lastly, the in vivo anticancer activity of Ru5 was assessed via a A549 xenograft nude mice model (Fig. 5A). Mice were treated with PBS, cisplatin (5 mg kg^−1) or Ru5 (5 mg kg^−1) for 14 days, during which body weights and tumor volumes were monitored.
Figure 5. […] (A) Schematic illustration of in vivo therapeutic protocol. (B) Graphs of tumor volumes of nude mice after treatment with Ru5 (5 mg kg^−1), cisplatin (5 mg kg^−1) and PBS. The intratumoral injections were performed every 7 days. Data are presented as means ± SD, n = 5. (C) Immunohistochemical analysis of hematoxylin-eosin (H&E) staining in tumor sections from mice with different treatments. Scale bar: 50 μm. (D) Tumors separated from nude mice. (E) The average body weight of the mice in each group during the treatment process. Data are presented as means ± SD, n = 5. (F) H&E staining of the main organs from mice with different treatments. Scale bar: 100 μm.

In data set [5] the test system is triple negative breast cancer (MDA-MB-231). Kind of data set: MTT antiproliferative assay, MDA-MB-231. In kind it is cell-based, human. Particulars: 72 h.
Description: as §2, §3

Data set [6] relates to cervical carcinoma (HeLa). Briefly: MTT antiproliferative assay, HeLa. It counts as cell-based, human. Conditions: 72 h.
Description: as §2, §3

The test system of a further data set is malignant glioma (U87). Briefly: MTT antiproliferative assay, U87. Particulars: 72 h. It counts as cell-based, human.
Description: as §2, §3

Data set [7] can be described thus: Aqueous solubility by concentration-absorbance linearity. Particulars: PBS with 1% DMSO. It counts as physicochemical.
Description: Subsequently, the lipophilicity and aqueous solubility of Ru1–Ru9 were investigated.
In the next data set the test system is A549 cells. Briefly: Anticancer activity in wild type vs ATPase siRNA knockdown cells. It counts as cell-based, human. Conditions: compared to wild-type cells. As to the method: as §1, with “GLN39).” for “GLN39). The yellow dashes indicate the hydrophobic interaction between Ru5 and the amino acid residues (ASN15 and GLN19). Data are presented as means ± SD from three independent experiments. TEXT PRINTED IN THE PICTURE: (B) Ru5a: Log2 (fold change) (Ru5a/DMSO): 1.43 (Protein name: H1F0); Log2 (fold change) (Ru5a/DMSO): 1.23 (Protein name: HIST4H4); Log2 (fold change) (Ru5a/DMSO): 1.22 (Protein name: HIST3H2BB); Log2 (fold change) (Ru5a/DMSO): 1.21 (Protein name: ATP5F1E); Log2 (fold change) (Ru5a/DMSO): 1.12 (Protein name: HIST1H2AJ) DOUBTS OF THE COPYIST ABOUT THIS PICTURE: Panel B: the table rows are proteins enriched by Ru5a, not separate substances.”

A further data set deals with mitochondria. Briefly: Subcellular Ru content by ICP-MS. It counts as cell-based. Particulars: 20 μM, 12 h. As to the method:
as §1, with “GLN39).” for “GLN39). The yellow dashes indicate the hydrophobic interaction between Ru5 and the amino acid residues (ASN15 and GLN19). Data are presented as means ± SD from three independent experiments. TEXT PRINTED IN THE PICTURE: (B) Ru5a: Log2 (fold change) (Ru5a/DMSO): 1.43 (Protein name: H1F0); Log2 (fold change) (Ru5a/DMSO): 1.23 (Protein name: HIST4H4); Log2 (fold change) (Ru5a/DMSO): 1.22 (Protein name: HIST3H2BB); Log2 (fold change) (Ru5a/DMSO): 1.21 (Protein name: ATP5F1E); Log2 (fold change) (Ru5a/DMSO): 1.12 (Protein name: HIST1H2AJ) DOUBTS OF THE COPYIST ABOUT THIS PICTURE: Panel B: the table rows are proteins enriched by Ru5a, not separate substances.”

A further data set relates to ATP5F1. Briefly: Cellular thermal shift assay (CETSA). In kind it is cell-based. Conditions: 10 μM. As to the method:
as §1, with “GLN39).” for “GLN39). The yellow dashes indicate the hydrophobic interaction between Ru5 and the amino acid residues (ASN15 and GLN19). Data are presented as means ± SD from three independent experiments. TEXT PRINTED IN THE PICTURE: (B) Ru5a: Log2 (fold change) (Ru5a/DMSO): 1.43 (Protein name: H1F0); Log2 (fold change) (Ru5a/DMSO): 1.23 (Protein name: HIST4H4); Log2 (fold change) (Ru5a/DMSO): 1.22 (Protein name: HIST3H2BB); Log2 (fold change) (Ru5a/DMSO): 1.21 (Protein name: ATP5F1E); Log2 (fold change) (Ru5a/DMSO): 1.12 (Protein name: HIST1H2AJ) DOUBTS OF THE COPYIST ABOUT THIS PICTURE: Panel B: the table rows are proteins enriched by Ru5a, not separate substances.”

The Ki is a measure of affinity in units of concentration, obtained from inhibition or displacement. As for `Cc1ccc2c(c1)C(=O)C1(O)CCN(c3ccccc3)C1=N2` (single isomer, unassigned; (-)) [(-)-blebbistatin, reference compound], in [1], the Ki was 3.3 ± 0.5 µM.

The term IC50 denotes the concentration that gives 50% inhibition. Lower therefore signals inhibition by little substance. In the case of `N.N.[Cl][Pt][Cl]` [Cisplatin, reference compound], the IC50 in [2] came to 5.9 ± 1 µM; in data set [3], 28.1 ± 4.2 µM; in data set [4] it was 15.4 ± 1.1 µM; in the data set with prostate cancer (PC3), 13.1 ± 2.7 µM; in [5], 9 ± 0.2 µM; in [6], 10.3 ± 1.3 µM. Moreover, inhibition in the data set with malignant glioma (U87) was half-maximal at 14.8 ± 1.2 µM (IC50). For the same compound, the “SI (selectivity index)” value in data set [2] was 2.6. Further, in the data set on A549 xenograft, the “Tumor growth inhibitory rate” value was roughly 74.4%.

With `F[P-](F)(F)(F)(F)F.F[P-](F)(F)(F)(F)F.[Ru+2].c1ccc2nc(-c3nccc4c3[nH]c3ccccc34)ccc2c1.c1cnc2c(c1)ccc1cccnc12.c1cnc2c(c1)ccc1cccnc12` [Ru2], in data set [2], the “SI (selectivity index)” value is on record as “higher”. Also, in [7], the “Linear relationship between absorbance and concentration up to” value is reported as “at least 100 μM”.

On to `F[P-](F)(F)(F)(F)F.F[P-](F)(F)(F)(F)F.[Ru+2].c1ccc(-c2ccnc3c2ccc2c(-c4ccccc4)ccnc23)cc1.c1ccc(-c2ccnc3c2ccc2c(-c4ccccc4)ccnc23)cc1.c1ccc2nc(-c3nccc4c3[nH]c3ccccc34)ccc2c1` [Ru3], for which the “SI (selectivity index)” value in data set [2] was “higher”. The Highest solubility result in data set [7] is recorded as “lower than 40 μM”.

For the compound `C#CCCC1(CCNC(=O)c2cc3cccnc3c3ncccc23)N=N1.F[P-](F)(F)(F)(F)F.F[P-](F)(F)(F)(F)F.[Ru+2].c1ccc2c(c1)[nH]c1c(-c3ncc[nH]3)nccc12.c1cnc2c(c1)ccc1cccnc12` [Ru5a], in the data set with A549 cells, the “Effect of siRNA-mediated knockdown of ATPase on anticancer effects” value is “alleviates”. For the same compound, the IC50 in data set [2] was determined as 2.5 ± 0.4 µM; in [3], 4.2 ± 0.6 µM; in [4], 23.2 ± 0.3 µM; in the data set with prostate cancer (PC3), 3.4 ± 0.6 µM; in data set [5], 8.4 ± 0.6 µM; in data set [6] it was 3.8 ± 0.1 µM. Moreover, the 50% inhibitory concentration (IC50) with malignant glioma (U87) stood at 13.4 ± 0.4 µM. The “SI (selectivity index)” value in data set [2] was determined as 9.3. For the same compound, the “Subcellular location (cellular Ru content)” value with mitochondria was “mainly located in mitochondria”. For the same compound, the “Thermal stability of ATP5F1” value in the data set with ATP5F1 is “increased”. For the same compound, the Ki in data set [1] was determined as 8.1 ± 1.5 µM.

As for `F[P-](F)(F)(F)(F)F.F[P-](F)(F)(F)(F)F.[Ru+2].c1ccc(-c2ccnc3c2ccc2c(-c4ccccc4)ccnc23)cc1.c1ccc(-c2ccnc3c2ccc2c(-c4ccccc4)ccnc23)cc1.c1ccc2c(c1)[nH]c1c(-c3ncc[nH]3)nccc12` [Ru6], in data set [7], the Highest solubility result was “lower than 40 μM”.

As for `F[P-](F)(F)(F)(F)F.F[P-](F)(F)(F)(F)F.[Ru+2].c1ccc2[nH]c(-c3nccc4c3[nH]c3ccccc34)nc2c1.c1cnc2c(c1)ccc1cccnc12.c1cnc2c(c1)ccc1cccnc12` [Ru8], the “Linear relationship between absorbance and concentration up to” value in [7] is recorded as “at least 100 μM”.

With `F[P-](F)(F)(F)(F)F.F[P-](F)(F)(F)(F)F.[Ru+2].c1ccc(-c2ccnc3c2ccc2c(-c4ccccc4)ccnc23)cc1.c1ccc(-c2ccnc3c2ccc2c(-c4ccccc4)ccnc23)cc1.c1ccc2[nH]c(-c3nccc4c3[nH]c3ccccc34)nc2c1` [Ru9], the “SI (selectivity index)” value in data set [2] is “higher”. Moreover, the Highest solubility result in data set [7] is recorded as “lower than 40 μM”.
